Experimental findings from US12545659B2, “IRAK degraders and uses thereof” (Kymera Therapeutics, Inc., priority 2019, dated 2026) are described below.

Some results are limits rather than exact numbers.

One assay has as its target T1, IRAK4 (Homo sapiens, UniProt Q9NWZ3).
T1 construct: endogenous in cells; host or cells: OCI-LY10
T1 sequence (Q9NWZ3 1-460): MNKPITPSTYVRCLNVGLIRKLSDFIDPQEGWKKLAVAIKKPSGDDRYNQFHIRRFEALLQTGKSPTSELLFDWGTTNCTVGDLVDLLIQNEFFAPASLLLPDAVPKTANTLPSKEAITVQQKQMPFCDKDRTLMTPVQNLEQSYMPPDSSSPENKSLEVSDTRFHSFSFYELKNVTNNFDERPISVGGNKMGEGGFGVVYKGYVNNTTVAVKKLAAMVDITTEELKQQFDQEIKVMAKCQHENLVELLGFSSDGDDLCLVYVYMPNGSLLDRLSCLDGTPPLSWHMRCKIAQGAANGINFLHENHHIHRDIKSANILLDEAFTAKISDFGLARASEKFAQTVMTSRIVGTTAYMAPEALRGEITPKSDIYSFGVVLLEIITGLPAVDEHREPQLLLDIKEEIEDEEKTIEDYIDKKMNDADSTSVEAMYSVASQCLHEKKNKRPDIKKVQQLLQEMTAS
Put plainly: IRAK4 MSD Degradation in OCI-LY10. Format: cell-based. To be noted: OCI-LY10 cells, 4 hrs incubation, read-out: IRAK4 degradation in OCI-LY10 at 4 hrs: DC50. In a few lines: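 OCI-LY10 cells treated with 8-dose, 1:3 dilution series (top final 1 to 10 μM) for 4 to 24 h at 37 °C, 5% CO2. Lysate IRAK4 quantified by MSD sandwich immunoassay (mouse 2H9 capture, rabbit Y279 detection, SULFO-TAG anti-rabbit); DC50 from three-parameter logistic fit.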
With `Cn1c(=O)n(C2CCC(=O)NC2=O)c2cccc(C3CN(C[C@H]4CC[C@H](n5cc6cc(NC(=O)c7cccc(C(F)(F)F)n7)c(C(F)F)cc6n5)CC4)C3)c21` (stereo partly shown) [I-104], the DC50 fell in the range of 50 to 100 nM.

Turning to `Cn1c(=O)n(C2CCC(=O)NC2=O)c2cccc(CCC3CC4(CCN(C[C@H]5CC[C@H](n6cc7cc(NC(=O)c8cnn9cccnc89)c(C(C)(C)O)cc7n6)CC5)CC4)C3)c21` (stereo partly shown) [I-105], the DC50 was less than 50 nM.

Regarding `CN(C[C@H]1CC[C@H](n2cc3cc(NC(=O)c4cccc(C(F)(F)F)n4)c(C(F)F)cc3n2)CC1)C1CCN(c2ccc3c(c2)n(C)c(=O)n3C2CCC(=O)NC2=O)CC1` (stereo partly shown) [I-106], the DC50 was less than 50 nM.

On to `COc1cc2nn([C@H]3CC[C@H](CN(C)C4CCN(c5ccc6c(c5)n(C)c(=O)n6C5CCC(=O)NC5=O)CC4)CC3)cc2cc1NC(=O)c1cccc(C(F)(F)F)n1` (stereo partly shown) [I-107], for which the DC50 was less than 50 nM.

Regarding `Cn1c(=O)n(C2CCC(=O)NC2=O)c2cccc(CCC3CC4(CCN(C[C@H]5CC[C@H](n6cc7cc(NC(=O)c8cccc(OC(F)(F)F)n8)c(C(C)(C)O)cc7n6)CC5)CC4)C3)c21` (stereo partly shown) [I-108], the DC50 fell in the range of 50 to 100 nM.

As to `COc1cc2nn([C@H]3CC[C@H](CN4CCC5(CC4)CC(Cc4cccc6c4n(C)c(=O)n6C4CCC(=O)NC4=O)C5)CC3)cc2cc1NC(=O)c1cccc(C(F)(F)F)n1` (stereo partly shown) [I-109], the DC50 is 50 to 100 nM.

On to `COc1cc2nn([C@H]3CC[C@H](CN4CCC(c5cccc6c5n(C)c(=O)n6C5CCC(=O)NC5=O)CC4)CC3)cc2cc1NC(=O)c1cccc(C(F)(F)F)n1` (stereo partly shown) [I-110], for which the DC50 was less than 50 nM.

With `COc1cc2nn([C@H]3CC[C@H](CN4CC(c5cccc6c5n(C)c(=O)n6C5CCC(=O)NC5=O)C4)CC3)cc2cc1NC(=O)c1cccc(C(F)(F)F)n1` (stereo partly shown) [I-111], the DC50 was 50 to 100 nM.

Take `COc1cc2nn([C@H]3CC[C@H](CN4CC(c5cccc6c5n(C)c(=O)n6C5CCC(=O)NC5=O)C4)CC3)cc2cc1NC(=O)c1cccc(C(C)(C)F)n1` (stereo partly shown) [I-112]: the DC50 was in the range of 50 to 100 nM.

As for `Cn1c(=O)n(C2CCC(=O)NC2=O)c2cccc(C3CN(C[C@H]4CC[C@H](n5cc6cc(NC(=O)c7cccc(C(C)(C)F)n7)c(C(F)F)cc6n5)CC4)C3)c21` (stereo partly shown) [I-113], the DC50 lay within 50 to 100 nM.

`COc1cc2nn([C@H]3CC[C@H](CN4CCC(c5cccc6c5n(C)c(=O)n6C5CCC(=O)NC5=O)CC4)CC3)cc2cc1NC(=O)c1cccc(C(C)(C)F)n1` (stereo partly shown) [I-114]: the DC50 lay in the range of 50 to 100 nM.

For the compound `Cn1c(=O)n(C2CCC(=O)NC2=O)c2cccc(OCC3CCN(C[C@H]4CC[C@H](n5cc6cc(NC(=O)c7cccc(C(F)(F)F)n7)c(C(F)F)cc6n5)CC4)CC3)c21` (stereo partly shown) [I-115], the DC50 was less than 50 nM.

Take `CN(C[C@H]1CC[C@H](n2cc3cc(NC(=O)c4cnn5cccnc45)c(N4CCOCC4)cc3n2)CC1)C1CCN(Cc2cccc3c2n(C)c(=O)n3C2CCC(=O)NC2=O)CC1` (stereo partly shown) [I-116]: the DC50 is less than 50 nM.

`COc1cc2nn([C@H]3CC[C@H](CN(C)C4CCC5(CC4)CC(Cc4cccc6c4n(C)c(=O)n6C4CCC(=O)NC4=O)C5)CC3)cc2cc1NC(=O)c1cccc(C(F)(F)F)n1` (stereo partly shown) [I-117]: the DC50 is 50 to 100 nM.

For `Cn1c(=O)n(C2CCC(=O)NC2=O)c2cccc(OCC3CCN(C[C@H]4CC[C@H](n5cc6cc(NC(=O)c7cccc(C(F)(F)F)n7)c(C(C)(C)O)cc6n5)CC4)CC3)c21` (stereo partly shown) [I-132], the DC50 is less than 50 nM.

For `COc1cc2nn([C@H]3CC[C@H](CN4[C@@H]5CC[C@H]4CN(CCc4cccc6c4n(C)c(=O)n6C4CCC(=O)NC4=O)C5)CC3)cc2cc1NC(=O)c1cccc(C(F)(F)F)n1` (stereo partly shown) [I-133], the DC50 is less than 50 nM.

In the case of `COc1cc2nn([C@H]3CC[C@H](CN(C)CC#Cc4cccc5c4n(C)c(=O)n5C4CCC(=O)NC4=O)CC3)cc2cc1NC(=O)c1cccc(C(F)(F)F)n1` (stereo partly shown) [I-134], the DC50 was in the range of 50 to 100 nM.

As to `Cn1c(=O)n(C2CCC(=O)NC2=O)c2cccc(CCCC3CCN(C[C@H]4CC[C@H](n5cc6cc(NC(=O)c7cccc(C(F)(F)F)n7)c(N7CCOCC7)cc6n5)CC4)CC3)c21` (stereo partly shown) [I-135], the DC50 fell in the range of 50 to 100 nM.

The same assay, now with this note: OCI-LY10 cells, 24 hrs incubation, read-out: IRAK4 degradation in OCI-LY10 at 24 hrs: DC50.
For the compound `CC(C)(O)COc1cc2nn([C@H]3CC[C@H](CN4CCC5(CC4)CC(CNc4cccc6c4C(=O)N(C4CCC(=O)NC4=O)C6=O)C5)CC3)cc2cc1NC(=O)c1cccc(C(C)(C)F)n1` (stereo partly shown) [I-118], the DC50 lay within 50 to 100 nM.

In the case of `CC(C)(O)COc1cc2nn([C@H]3CC[C@H](CN4CCC5(CC4)CC(CCNc4cccc6c4C(=O)N(C4CCC(=O)NC4=O)C6=O)C5)CC3)cc2cc1NC(=O)c1cccc(C(C)(F)F)n1` (stereo partly shown) [I-119], the DC50 was in the range of 50 to 100 nM.

`COc1cc2nn([C@H]3CC[C@H](CN4CCC5(CC4)CC(CCNc4cccc6c4C(=O)C(C4CCC(=O)NC4=O)C6=O)C5)CC3)cc2cc1NC(=O)c1ccnc(C)n1` (stereo partly shown) [I-120]: the DC50 is 50 to 100 nM.

Turning to `COc1cc2nn([C@H]3CC[C@H](CN4CCC5(CC4)CC(CCNc4cccc6c4C(=O)N(C4CCC(=O)NC4=O)C6=O)C5)CC3)cc2cc1NC(=O)c1ccc(F)c(C)n1` (stereo partly shown) [I-121], the DC50 lay within 50 to 100 nM.

`COc1cc2nn(C3CCC(CN4CC5(CCC(CNc6cccc7c6C(=O)N(C6CCC(=O)NC6=O)C7=O)CC5)C4)CC3)cc2cc1NC(=O)c1cccc(C(C)(F)F)n1` (stereo not shown) [I-122]: the DC50 was 50 to 100 nM.

`CC(C)(O)c1cc2nn([C@H]3CC[C@H](CN4CCC5(CC4)CC(Nc4cccc6c4C(=O)N(C4CCC(=O)NC4=O)C6=O)C5)CC3)cc2cc1NC(=O)c1cccc(S(F)(F)(F)(F)F)c1` (stereo partly shown) [I-123]: the DC50 lay within 50 to 100 nM.

Take `CN(C[C@H]1CC[C@H](n2cc3cc(NC(=O)c4cccc(C(F)(F)F)n4)c(C(C)(C)O)cc3n2)CC1)[C@H]1CC[C@]2(CC1)C[C@H](Nc1cccc3c1C(=O)N(C1CCC(=O)NC1=O)C3=O)C2` (stereo partly shown) [I-124]: the DC50 was less than 50 nM.

Turning to `COc1cc2nn([C@H]3CC[C@H](CN4CCC5(CC4)CC(CCNc4cccc6c4C(=O)N(C4CCC(=O)NC4=O)C6=O)C5)CC3)cc2cc1NC(=O)c1ccccn1` (stereo partly shown) [I-125], the DC50 was 50 to 100 nM.

As for `CN(C[C@H]1CC[C@H](n2cc3cc(NC(=O)c4cccc(C(F)(F)F)n4)c(C(C)(C)O)cc3n2)CC1)[C@H]1CC[C@@]2(CC1)C[C@H](Nc1cccc3c1C(=O)N(C1CCC(=O)NC1=O)C3=O)C2` (stereo partly shown) [I-126], the DC50 was in the range of 50 to 100 nM.

As for `CC1(C)OC(c2cccc(C(F)(F)F)n2)=Nc2cc3cn([C@H]4CC[C@H](CN5CCC6(CC5)CC(Nc5cccc7c5C(=O)N(C5CCC(=O)NC5=O)C7=O)C6)CC4)nc3cc21` (stereo partly shown) [I-127, 4-[[7-[[4-[8,8-Dimethyl-6-[6-(trifluoromethyl)-2-pyridyl]pyrazolo[3,4-g][3,1]benzoxazin-2-yl]cyclohexyl]methyl]-7-azaspiro[3.5]nonan-2-yl]amino]-2-(2,6-dioxo-3-piperidyl)isoindoline-1,3-dione], the DC50 is 50 to 100 nM.

`COc1cc2nn([C@H]3CC[C@H](CN4CCC5(CC4)CC(CNc4cccc6c4C(=O)N([C@@H]4CCC(=O)NC4=O)C6=O)C5)CC3)cc2cc1NC(=O)c1cccc(C(F)(F)F)n1` [I-130, N-[2-[4-[[2-[[[2-[(3R)-2,6-dioxo-3-piperidyl]-1,3-dioxo-isoindolin-4-yl]amino]methyl]-7-azaspiro[3.5]nonan-7-yl]methyl]cyclohexyl]-6-methoxy-indazol-5-yl]-6-(trifluoromethyl)pyridine-2-carboxamide]: the DC50 was in the range of 50 to 100 nM.

For `COc1cc2nn([C@H]3CC[C@H](CN4CCC5(CC4)CC(CNc4cccc6c4C(=O)N([C@H]4CCC(=O)NC4=O)C6=O)C5)CC3)cc2cc1NC(=O)c1cccc(C(F)(F)F)n1` [I-131, N-[2-[4-[[2-[[[2-[(3S)-2,6-dioxo-3-piperidyl]-1,3-dioxo-isoindolin-4-yl]amino]methyl]-7-azaspiro[3.5]nonan-7-yl]methyl]cyclohexyl]-6-methoxy-indazol-5-yl]-6-(trifluoromethyl)pyridine-2-carboxamide], the DC50 lay in the range of 50 to 100 nM.

With `COc1cc2nn([C@H]3CC[C@H](CN4CCC5(CC4)CC(CCNc4cccc6c4C(=O)N(C4CCC(=O)NC4=O)C6=O)C5)CC3)c(C)c2cc1NC(=O)c1cccc(C(F)(F)F)n1` (stereo partly shown) [I-136], the DC50 was in the range of 50 to 100 nM.

For `COc1cc2nc([C@H]3CC[C@H](CN4CCC5(CC4)CC(CCNc4cccc6c4C(=O)N(C4CCC(=O)NC4=O)C6=O)C5)CC3)oc2cc1NC(=O)c1cccc(C(F)(F)F)n1` (stereo partly shown) [I-137], the DC50 is 100 to 500 nM.

In the case of `CC(C)(O)COc1cc2nn([C@H]3CC[C@H](CN4CCC5(CC4)CC(CNc4cccc6c4C(=O)N(C4CCC(=O)NC4=O)C6=O)C5)CC3)cc2cc1NC(=O)c1cccc(C(F)(F)F)n1` (stereo partly shown) [I-138], the DC50 was 50 to 100 nM.

In the case of `COc1cc2nn([C@H]3CC[C@H](CN4CCC5(CC4)CC(CCNc4cccc6c4C(=O)N(C4CCC(=O)NC4=O)C6=O)C5)CC3)cc2cc1NC(=O)c1cnn2cccnc12` (stereo partly shown) [I-139], the DC50 was less than 50 nM.

`COc1cc2nn([C@H]3CC[C@H](CN4CCC(CO[C@H]5C[C@H](Nc6cccc7c6C(=O)N(C6CCC(=O)NC6=O)C7=O)C5)CC4)CC3)cc2cc1NC(=O)c1cccc(C(C)(C)F)n1` (stereo partly shown) [I-140]: the DC50 lay in the range of 50 to 100 nM.

For the compound `O=C1CCC(N2C(=O)c3cccc(NCCC4CC5(CCN(C[C@H]6CC[C@H](n7cc8cc(NC(=O)c9cccc(C(F)(F)F)n9)c(OC(F)(F)F)cc8n7)CC6)CC5)C4)c3C2=O)C(=O)N1` (stereo partly shown) [I-141], the DC50 is 50 to 100 nM.

As for `COc1cc2nn([C@H]3CC[C@H](CN4CCC5(CC4)CC(CCNc4cccc6c4C(=O)N(C4CCC(=O)NC4=O)C6=O)C5)CC3)cc2cc1NC(=O)[C@H]1CCCCO1` (stereo partly shown) [I-142], the DC50 lay within 500 to 1000 nM.
